In ChEMBL document CHEMBL2169748 (J Med Chem, 2012):
Values after ≈ are worked out from the molar mass of the structure shown.

Key:
[1] = Oral bioavailability in dog; format: ADME, organism-based, Canis lupus familiaris; settings: in vivo
[2] = Half life in dog; format: ADME, organism-based, Canis lupus familiaris; settings: in vivo
[3] = Half life in rat; format: ADME, organism-based; settings: in vivo
[4] = Volume of distribution at steady state in rat; format: ADME, organism-based; settings: in vivo, read-out: Vdss
[5] = Volume of distribution at steady state in dog; format: ADME, organism-based, Canis lupus familiaris; settings: in vivo, read-out: Vdss
[6] = Clearance in dog; format: ADME, organism-based, Canis lupus familiaris; settings: in vivo
[7] = Clearance in rat; format: ADME, organism-based; settings: in vivo
[8] = Permeability across MDCK cells; format: ADME, cell-based, Canis lupus familiaris; settings: dog
[9] = Solubility in aqueous solution at pH 6.5; format: physicochemical
[10] = Oral bioavailability in rat; format: ADME, organism-based; settings: in vivo

Row | bioavailability [1] [%] | half-life [2] [h] | half-life [3] [h] | Vd [4] [L/kg] | Vd [5] [L/kg] | clearance [6] [mL/min/kg] | clearance [7] [mL/min/kg] | Papp [8] [×10⁻⁶ cm/s] | solubility [9] [µg/mL] | bioavailability [10] [%] | SMILES
1 | 56 | 3.6 | 2.6 | 6.5 | 6.5 | 25 | 34 | 16 | 338 (≈ 654 µM) | – | CCc1nc2ccccc2n1-c1nc(N2CCOCC2)c2nc(CN3CC(C4CCOCC4)C3)n(C)c2n1
2 | > 100 | 6.4 | 1.5 | 4.1 | 2 | 5 | 19 | – | – | 92 | CCc1nc2ccccc2n1-c1nc(N2CCOCC2)c2nc(CN3CCC(C(C)(C)O)CC3)n(C)c2n1
